Results as given in patent publication US20100297262A1, “[…] ACTIVE COMPOSITIONS COMPRISING OXIDATIVE STRESS MODULATORS (OSM), NEW CHEMICAL […], COMPOSITIONS AND USES” (COLBY PHARMACEUTICAL COMPANY, priority 2009, published 2010).
Like-named read-outs stand apart in the source and are kept apart here.

Key:
LNCaP cells [1] = experiment: DNA (Hoechst 33258) fluorescence cell growth assay, Example 12; format: cell-based, human; conditions: for cell growth (DNA fluorescence) with logarithmic increase in SAHA concentration: SAHA 0-10 μM
HDAC = tested on: HDAC
Description: The HDAC activity is expressed as a ratio of HDAC product fluorescence/DNA fluorescence in relative fluorescence unit (FU).

[2] = tested on: superoxide dismutase (SOD); experiment: SOD assay; format: cell-based, human; conditions: pretreated with 0.05 nM or 1 nM R1881 prior to 10 μM SAHA
all cell lines = experiment: DNA fluorescence cell growth assay, cell lines taken together; format: cell-based, human
[3] = patients, oral SAHA 400 mg qd, cited from earlier work
[4] = tested on: recurrent glioblastoma multiforme; conditions: compared to 4-4.4 months in earlier studies; cited from earlier work
[5] = tested on: advanced non-small-cell lung cancer (NSCLC); conditions: survival improvements not significant at P=0.05; cited from earlier work
[6] = tested on: latently HIV infected T-Cells; conditions: cited from earlier work
PC-3 cells [7] = experiment: DNA fluorescence cell growth assay; conditions: SAHA below 10 μM
HT-29 = experiment: DNA fluorescence cell growth assay; conditions: Vitamin E pretreated
MDA-MB231 = experiment: DNA fluorescence cell growth assay; conditions: Vitamin E pretreated
A549 = experiment: DNA fluorescence cell growth assay; conditions: any concentration of SAHA
NCI-H460 = experiment: DNA fluorescence cell growth assay; conditions: any concentration of SAHA
acetyl histone H4 = experiment: Western blot analysis of acetylated histones
LNCaP cells [8] = experiment: LC-MS estimation of intracellular SAHA concentration; conditions: Vitamin E pretreated cells, first 24 hours
Procedure: Ten μL of each extract was used for LC-MS analysis, and the assay was repeated three times.
The solvent gradient and the flow rates were adjusted appropriately. A 5 minute post-run column wash at 10% solvent A, 90% solvent B was maintained at 0.2 ml/min. The column thermostat was maintained at 25° C. for the complete run.
The Mass detector for the mass detection was carried out with Agilent 1100 quadruple moment bench-top mass spectrometer with electrospray ionization in the positive ion mode at 3000 V. For both the single ion MS and scanning MS/MS mode, the desolvation temperature was 340° C. with the drying gas flow rate of 12 l/min at a nebular pressure of 40 psig. […] All data were collected, stored and analyzed using Agilent software for data collection, peak detection and integration.

LNCaP cells [9] = experiment: Cellular ROS as ratio DCF fluorescence:DNA fluorescence, Example 12
Description: Fluorescence of oxidized DCF dye is proportional to the total cellular ROS. When DCF fluorescence is normalized with the DNA fluorescence from the same well of the 96-well plate, the ratio DCF fluorescence:DNA fluorescence is proportional to the ROS generated per cell.

PC-3 cells [10] = experiment: Cellular ROS as ratio DCF fluorescence:DNA fluorescence; conditions: 20 μM Vitamin E (non-toxic dose)
[11] = Distribution and clearance of alkylTPP compounds (i.v., feeding tritiated compounds, drinking water); conditions: mice
in vivo [12] = experiment: in vivo
Procedure: (§1) Pharmacokinetic (PK) studies of PMCol in mice administered 100 mg/kg PMCol p.o. or 5 mg/kg of PMCol i.v., using Liquid Chromatography-Mass Spectroscopic (LC-MS) analyses.

[13] = tested on: Isolated liver mitochondria; conditions: Treatment: Ferrous iron/ascorbate; cited from earlier work
[14] = tested on: Isolated kidney mitochondria; conditions: Treatment: Superoxide; cited from earlier work
Jurkat cells = conditions: Treatment: H2O2; cited from earlier work
[15] = tested on: Bovine aortic endothelial cells; conditions: Treatment: H2O2 or hydroperoxyoctadecadienoic acid; cited from earlier work
[16] = tested on: Friedreich's ataxia patient primary skin fibroblasts; conditions: Treatment: Glutathione depletion; cited from earlier work
COS-7 cells = conditions: Treatment: H2O2; cited from earlier work
[17] = tested on: Rat primary cerebellar granule cells; conditions: Treatment: Ethanol; cited from earlier work
[18] = tested on: Human colon cancer cell lines (HCT116 and RKO); conditions: Treatment: 5-Fluorouracil; cited from earlier work
DU-145 = experiment: Growth of human prostate tumor cells in culture, PMCol; format: cell-based
Procedure: as §1
(§2) Mito-PMCol analogs and PMCol were compared for their relative cytostatic/anti-proliferative and cytotoxic and therapeutic activities in tumor cell systems as measured by clonogenic assays and direct live and dead cell counts are performed in a hemacytometer by trypan blue dye exclusion assay or by DNA fluorescence assays following routine published procedures established in our labs.

LAPC4 = experiment: as above; format: cell-based
Procedure: as §1, §2

LNCaP = experiment: as above; format: cell-based
Procedure: as §1, §2

[19] = tested on: spontaneous TRAMP mouse tumors; experiment: TRansgenic Adenocarcinoma of Mouse Prostate (TRAMP) model; format: in vivo
Procedure: The inhibitory effect of PMCol on prostate tumor growth is tested in the well characterized […] Adenocarcinoma of Mouse Prostate (TRAMP) model. […] Tumor development in PMCol treated animals was delayed by over 8 weeks as compared to the control animals.

in vivo [20] = conditions: mouse
Procedure: (§3) In order to test the efficacy of PMCol-C2 or Mito-PMCol-C10 in inhibiting growth of prostate tumors in vivo, the PMCol drug formulation was standardized, the route of its administration was determined and determination of the maximum tolerated dose (MTD), when administered orally or by i.v. injection.

[21] = rat, in vivo, po
Procedure: as §3

[22] = format: physicochemical; conditions: pH 2
siSSAT clone = experiment: ROS production in siSSAT clone; format: cell-based, human; conditions: R1881 treatment
[23] = tested on: LNCaP cells transfected with the control vector containing scrambled sequence; experiment: ROS production in vector control cells; format: cell-based, human; conditions: R1881 treatment
LNCaP cells [24] = conditions: cited from earlier work
[25] = agent alone: 20 μM Vitamin E, 1 nM R1881 or 2 μM SAHA

O=C(CCCCCCC(=O)Nc1ccccc1)NO [SAHA, Suberoylanilide hydroxamic acid]
cell growth (DNA fluorescence) with logarithmic increase in SAHA concentration (LNCaP cells [1]; no R1881): inhibited almost linearly
cell growth (DNA fluorescence) (LNCaP cells [1]; normal androgen level (1 nM R1881), even at 10 μM SAHA): little effect on cell growth
cell growth (DNA fluorescence) with logarithmic increase in SAHA concentration (LNCaP cells [1]; pretreated with 0.05 nM R1881): inhibited almost linearly
cell growth (DNA fluorescence) (LNCaP cells [1]; pretreated with 2 nM R1881, all SAHA concentrations tested): negligible effect on cell growth
HDAC activity with increasing concentrations of SAHA (HDAC; R1881 untreated vector control cells, androgen-treated and untreated siSSAT cells): decreases in a similar fashion
HDAC activity with increasing concentrations of SAHA (HDAC; vector control cells pretreated with 1 nM R1881): increases after an initial decrease
SOD activity of LNCaP cells [2]: no significant difference in the SOD activity
nature of the increase in SAHA sensitivity (formalism of Chou and Talalay) (all cell lines; Vitamin E pretreatment followed by SAHA): synergistic
activity at clinically achievable serum level (~1.3 μM) (all cell lines; cell lines untreated with Vitamin E or another similar anti-oxidant): inactive
sensitivity to SAHA at a concentration much below the clinically achievable serum level (all cell lines; prostate, breast and colon cancer cells pretreated with anti-oxidants such as Vitamin E): highly sensitive
serum SAHA level [3]: ~349 ng/mL
serum SAHA level ([3]; clinically achievable): ~1.3 µM
median overall survival [4]: 5.7 months
response and survival [5]: improved response rates and increased median progression free survival and overall survival
effects against latently HIV infected T-Cells [6]: both in vitro and in vivo effects
resistance of PC-3 cells to SAHA (PC-3 cells [7]): intrinsically resistant
SAHA sensitivity compared to Vitamin E untreated cells (HT-29): higher in Vitamin E pretreated cells
SAHA sensitivity compared to Vitamin E untreated cells (MDA-MB231): higher in Vitamin E pretreated cells
change of SAHA sensitivity after Vitamin E pretreatment (A549): do not show any appreciable increase in SAHA sensitivity
change of SAHA sensitivity after Vitamin E pretreatment (NCI-H460): do not show any appreciable increase in SAHA sensitivity
acetyl-histone H4 level (acetyl histone H4; 1 nM R1881 pretreated cells + 2 μM SAHA): marked decrease
acetyl-histone H4 level (acetyl histone H4; [25]): small, but significant increase
intracellular SAHA level (LNCaP cells [8]): no significant decrease
cellular ROS (DCF/DNA fluorescence) with increase in SAHA concentration (LNCaP cells [9]; no R1881): ROS increases
cellular ROS (DCF/DNA fluorescence) with increase in SAHA concentration (LNCaP cells [9]; pretreated with 0.05 nM R1881): negligible effect on total cellular ROS levels
cellular ROS (DCF/DNA fluorescence) with increase in SAHA concentration (LNCaP cells [9]; pretreated with 2 nM R1881): negligible effect on total cellular ROS levels

Cc1c(C)c2c(c(C)c1OC(=O)CCC(=O)O)CC[C@@](C)(CCC[C@H](C)CCC[C@H](C)CCCC(C)C)O2 [Vitamin E, αTocopherol succinate]
acetyl histone H4 level (acetyl histone H4; Vitamin E + R1881 + SAHA): almost completely restores
acetyl-histone H4 level (acetyl histone H4; [25]): little effect on the acetyl-histone H4 level
ROS levels (PC-3 cells [10]): markedly reduces the ROS levels
ROS levels (LNCaP cells [9]; 20 μM Vitamin E (non-toxic dose), LNCaP treated and untreated with R1881): markedly reduces the ROS levels

CC1(C)CC(OCCCCC[P+](c2ccccc2)(c2ccccc2)c2ccccc2)CC(C)(C)N1[O].[Br-] [Mito-Tempol]
redistribution once in the bloodstream [11]: rapidly redistribute into organs

CC1=C(C)C(=O)C(CCC(C)(C)O)=C(C)C1=O [PMQ, 2-(3-hydroxy-3-methylbutyl)-3,5,6-trimethyl-1,4-benzo-quinone]
time the metabolite remained in the serum (in vivo [12]; mice, oral PMCol, last time point of PK studies): at least 24 hours
appearance of the LC-MS peak in serum after oral administration of PMCol (in vivo [12]; mouse, in vivo, po): appears in serum within minutes

Cc1c(C)c2c(c(C)c1O)CCC(C)(CC[P+](c1ccccc1)(c1ccccc1)c1ccccc1)O2 (stereo not drawn) [MitoVE-C2]
Outcome: lipid peroxidation, protein carbonyl formation and loss of membrane potential [13]: Decreases lipid peroxidation,
Outcome: activation of uncoupling proteins [14]: Blocks activation of
Outcome: apoptosis (Jurkat cells): Decreases apoptosis
Outcome: transferrin receptor expression and iron uptake [15]: fluorescence. Decreases
Outcome: cell death [16]: Decreases cell death
Outcome: growth factor receptor and kinase phosphorylation (COS-7 cells): Decreases growth factor
Outcome: dichlorofluorescein fluorescence and cell death [17]: Decreases
Outcome: apoptosis from 5-FU chemotherapy [18]: Decreases apoptosis from 5-

Cc1c(C)c2c(c(C)c1O)CCC(C)(C)O2 [PMCol, 2,2,5,7,8-pentamethyl-6-chromanol]
growth of androgen-independent DU-145 cells in culture (DU-145): inhibits the growth
growth of androgen-dependent LAPC4 cells in culture (LAPC4): inhibits the growth
growth of androgen-dependent LNCaP cells in culture (LNCaP): inhibits the growth
delay of tumor development as compared to the control animals ([19]; TRAMP model, PMCol treated animals): over 8 weeks
growth of spontaneous TRAMP mouse tumors ([19]; mouse, in vivo): inhibits the growth
oxidized metabolite (in vivo [12]; mouse, in vivo): ring-opened PMQ
bioavailability in blood serum (in vivo [12]; mouse, in vivo, iv): 0.5 mg/kg
half-life (in vivo [12]; mouse, in vivo, iv): 2 h
time after injection within which serum levels went down quickly (in vivo [12]; mouse, in vivo, iv, 5 mg/kg): ≤ 2 h
bioavailability in blood serum (in vivo [12]; mouse, in vivo, po): 4 mg/kg
half-life (in vivo [12]; mouse, in vivo, po): 0.5 h
in vivo metabolism (in vivo [12]; mouse, in vivo, po): oxidized in vivo to the hydroxylated-PMCol
time after administration within which serum levels went down quickly (in vivo [12]; mouse, in vivo, po, 100 mg/kg): ≤ 15 min
safety of administration (in vivo [20]): safely administered
MTD (in vivo [20]; iv): 7.5 mg/kg
MTD (in vivo [20]; po): 100 mg/kg
DLT [21]: 2 grams/kilogram/day
acid stability [22]: lability

C[C@]1(O)CC[C@H]2[C@@H]3CCC4=CC(=O)CCC4=C3C=C[C@@]21C [R1881]
effect on LNCaP cell growth (LNCaP cells [1]; 0.05 nM R1881): growth stimulatory
effect on LNCaP cell growth (LNCaP cells [1]; 1 nM or above): growth inhibitory effect
ROS production (siSSAT clone): no significant effect on ROS production
ROS production [23]: marked increase
cellular ROS (DCF dye oxidation) compared to 1-10 nM (LNCaP cells [24]; R1881 concentrations less than 0.1 nM, Ripple et al. 1997): significantly lower cellular ROS
cellular ROS (DCFH-DA dye oxidation) compared to 1 nM to 10 nM (LNCaP cells [24]; metribolone concentrations less than 1 nM, Ripple et al 1997): significantly lower cellular ROS
acetyl-histone H4 level (acetyl histone H4; [25]): little effect on the acetyl-histone H4 level
